PubChem BioAssay AID1259407 (Chemical Carcinogenesis Research Information System (CCRIS), 2018)
Active and inactive are the calls of the source. The rule behind the calls is not given here.

System: CCRIS mutagenicity, Ames/micronucleus/aberration tests
Test: CCRIS mutagenicity studies
[1] = Test System: AMES SALMONELLA TYPHIMURIUM, Strain/Indicator: TA98, Metabolic Activation: NONE, Method: PREINCUBATION
[2] = Test System: AMES SALMONELLA TYPHIMURIUM, Strain/Indicator: TA98, Metabolic Activation: NONE, Method: STANDARD PLATE
[3] = Test System: AMES SALMONELLA TYPHIMURIUM, Strain/Indicator: TA100, Metabolic Activation: NONE, Method: PREINCUBATION
[4] = Test System: AMES SALMONELLA TYPHIMURIUM, Strain/Indicator: TA1535, Metabolic Activation: NONE, Method: STANDARD PLATE
[5] = Test System: AMES SALMONELLA TYPHIMURIUM, Strain/Indicator: TA1537, Metabolic Activation: NONE, Method: STANDARD PLATE
[6] = Test System: AMES SALMONELLA TYPHIMURIUM, Strain/Indicator: TA1537, Metabolic Activation: RAT, LIVER, S-9, AROCLOR 1254, Method: STANDARD PLATE
[7] = Test System: AMES SALMONELLA TYPHIMURIUM, Strain/Indicator: TA1538, Metabolic Activation: NONE, Method: STANDARD PLATE
[8] = Test System: AMES SALMONELLA TYPHIMURIUM, Strain/Indicator: TA100, Metabolic Activation: NONE, Method: STANDARD PLATE
[9] = Test System: AMES SALMONELLA TYPHIMURIUM, Strain/Indicator: TA98, Metabolic Activation: RAT, LIVER, S-9, AROCLOR 1254, Method: STANDARD PLATE
[10] = Test System: AMES SALMONELLA TYPHIMURIUM, Strain/Indicator: TA100, Metabolic Activation: RAT, LIVER, S-9, AROCLOR 1254, Method: STANDARD PLATE

## COc1cc(NC(C)CCCN)c2ncccc2c1 (configuration not stated)
Test System: AMES SALMONELLA TYPHIMURIUM, Strain/Indicator: TA97, Metabolic Activation: NONE, Method: PREINCUBATION
  mutagenic call: active; positive
Test System: AMES SALMONELLA TYPHIMURIUM, Strain/Indicator: TA97, Metabolic Activation: RAT, LIVER, S-9, PHENOBARBITAL AND BETA-NAPHTHOFLAVONE, Method: PREINCUBATION
  mutagenic call: active; positive
Test System: AMES SALMONELLA TYPHIMURIUM, Strain/Indicator: TA97A, Metabolic Activation: NONE, Method: STANDARD PLATE
  mutagenic call: inactive; negative
Test System: AMES SALMONELLA TYPHIMURIUM, Strain/Indicator: TA97A, Metabolic Activation: RAT LIVER S-9, PHENOBARBITAL, Method: STANDARD PLATE
  mutagenic call: inactive; negative
[1]
  mutagenic call: inactive; negative
[2]
  mutagenic call: active; positive
Test System: AMES SALMONELLA TYPHIMURIUM, Strain/Indicator: TA98, Metabolic Activation: RAT, LIVER, S-9, AROCLOR 1254 OR PHENOBARBITOL, Method: STANDARD PLATE
  mutagenic call: active; positive
Test System: AMES SALMONELLA TYPHIMURIUM, Strain/Indicator: TA98, Metabolic Activation: RAT, LIVER, S-9, PHENOBARBITAL AND BETA-NAPHTHOFLAVONE, Method: PREINCUBATION
  mutagenic call: inactive; negative
Test System: AMES SALMONELLA TYPHIMURIUM, Strain/Indicator: TA98, Metabolic Activation: RAT, LIVER, S-9, Method: PREINCUBATION
  mutagenic call: inactive; negative
[3]
  mutagenic call: inactive; negative
Test System: AMES SALMONELLA TYPHIMURIUM, Strain/Indicator: TA100, Metabolic Activation: RAT LIVER S-9, PHENOBARBITAL, Method: STANDARD PLATE
  mutagenic call: inactive; negative
Test System: AMES SALMONELLA TYPHIMURIUM, Strain/Indicator: TA100, Metabolic Activation: RAT, LIVER, S-9, AROCLOR 1254 OR PHENOBARBITOL, Method: STANDARD PLATE
  mutagenic call: active; positive
Test System: AMES SALMONELLA TYPHIMURIUM, Strain/Indicator: TA100, Metabolic Activation: RAT, LIVER, S-9, PHENOBARBITAL AND BETA-NAPHTHOFLAVONE, Method: PREINCUBATION
  mutagenic call: inactive; negative
Test System: AMES SALMONELLA TYPHIMURIUM, Strain/Indicator: TA100, Metabolic Activation: RAT, LIVER, S-9, Method: PREINCUBATION
  mutagenic call: inactive; negative
Test System: AMES SALMONELLA TYPHIMURIUM, Strain/Indicator: TA102, Metabolic Activation: NONE, Method: PREINCUBATION
  mutagenic call: inactive; negative
Test System: AMES SALMONELLA TYPHIMURIUM, Strain/Indicator: TA102, Metabolic Activation: NONE, Method: STANDARD PLATE
  mutagenic call: inactive; negative
Test System: AMES SALMONELLA TYPHIMURIUM, Strain/Indicator: TA102, Metabolic Activation: RAT LIVER S-9, PHENOBARBITAL, Method: STANDARD PLATE
  mutagenic call: inactive; negative
Test System: AMES SALMONELLA TYPHIMURIUM, Strain/Indicator: TA102, Metabolic Activation: RAT, LIVER, S-9, PHENOBARBITAL AND BETA-NAPHTHOFLAVONE, Method: PREINCUBATION
  mutagenic call: inactive; negative
Test System: AMES SALMONELLA TYPHIMURIUM, Strain/Indicator: TA104, Metabolic Activation: NONE, Method: STANDARD PLATE
  mutagenic call: inactive; negative
Test System: AMES SALMONELLA TYPHIMURIUM, Strain/Indicator: TA104, Metabolic Activation: RAT LIVER S-9, PHENOBARBITAL, Method: STANDARD PLATE
  mutagenic call: inactive; negative
[4]
  mutagenic call: inactive; negative
Test System: AMES SALMONELLA TYPHIMURIUM, Strain/Indicator: TA1535, Metabolic Activation: RAT, LIVER, S-9, AROCLOR 1254 OR PHENOBARBITOL, Method: STANDARD PLATE
  mutagenic call: inactive; negative
Test System: AMES SALMONELLA TYPHIMURIUM, Strain/Indicator: TA1537, Metabolic Activation: NONE, Method: PREINCUBATION
  mutagenic call: active; positive
[5]
  mutagenic call: inactive; negative
Test System: AMES SALMONELLA TYPHIMURIUM, Strain/Indicator: TA1537, Metabolic Activation: RAT, LIVER, S-9, AROCLOR 1254, Method: PREINCUBATION
  mutagenic call: active; positive
[6]
  mutagenic call: active; positive
Test System: AMES SALMONELLA TYPHIMURIUM, Strain/Indicator: TA1537, Metabolic Activation: RAT, LIVER, S-9, AROCLOR 1254 OR PHENOBARBITOL, Method: STANDARD PLATE
  mutagenic call: inactive; negative
[7]
  mutagenic call: inactive; negative
Test System: AMES SALMONELLA TYPHIMURIUM, Strain/Indicator: TA1538, Metabolic Activation: RAT, LIVER, S-9, AROCLOR 1254 OR PHENOBARBITOL, Method: STANDARD PLATE
  mutagenic call: inactive; negative
Test System: E.COLI, Strain/Indicator: WP2UVRA/PKM101, Metabolic Activation: NONE, Method: PREINCUBATION
  mutagenic call: inactive; negative
Test System: E.COLI, Strain/Indicator: WP2UVRA/PKM101, Metabolic Activation: RAT LIVER S-9, PHENOBARBITAL AND 5,6-BENZOFLAVONE, Method: PREINCUBATION
  mutagenic call: inactive; negative

## CC(/C=C(/C#N)c1ccc(Cl)c(Cl)c1)C(c1ccccc1)C(C#N)c1ccc(Cl)c(Cl)c1 (configuration not stated)
[8]
  mutagenic call: active; positive

## O=Cc1cccc(Cl)c1Cl
[1]
  mutagenic call: inactive; negative
Test System: AMES SALMONELLA TYPHIMURIUM, Strain/Indicator: TA98, Metabolic Activation: RAT LIVER S-9, PCB, Method: PREINCUBATION
  mutagenic call: inactive; negative
[3]
  mutagenic call: inactive; negative
Test System: AMES SALMONELLA TYPHIMURIUM, Strain/Indicator: TA100, Metabolic Activation: RAT LIVER S-9, PCB, Method: PREINCUBATION
  mutagenic call: inactive; negative
Test System: AMES SALMONELLA TYPHIMURIUM, Strain/Indicator: TA104, Metabolic Activation: NONE, Method: PREINCUBATION
  mutagenic call: inactive; negative
Test System: AMES SALMONELLA TYPHIMURIUM, Strain/Indicator: TA104, Metabolic Activation: RAT LIVER S-9, PCB, Method: PREINCUBATION
  mutagenic call: inactive; negative
Test System: E.COLI, Strain/Indicator: WP2 UVRA, Metabolic Activation: NONE, Method: PREINCUBATION
  mutagenic call: inactive; negative
Test System: E.COLI, Strain/Indicator: WP2 UVRA, Metabolic Activation: RAT LIVER S-9, PCB, Method: PREINCUBATION
  mutagenic call: inactive; negative

## O=C(/C=C/c1ccc(F)cc1)c1ccccc1
[2]
  mutagenic call: inactive; negative
[9]
  mutagenic call: inactive; negative
[8]
  mutagenic call: inactive; negative
[10]
  mutagenic call: inactive; negative

## CC(=O)N(CC(O)CN(C(C)=O)c1c(I)c(C(=O)NCC(O)CO)c(I)c(C(=O)NCC(O)CO)c1I)c1c(I)c(C(=O)NCC(O)CO)c(I)c(C(=O)NCC(O)CO)c1I (configuration not stated)
[2]
  mutagenic call: inactive; negative
[9]
  mutagenic call: inactive; negative
[8]
  mutagenic call: inactive; negative
[10]
  mutagenic call: inactive; negative
[4]
  mutagenic call: inactive; negative
Test System: AMES SALMONELLA TYPHIMURIUM, Strain/Indicator: TA1535, Metabolic Activation: RAT, LIVER, S-9, AROCLOR 1254, Method: STANDARD PLATE
  mutagenic call: inactive; negative
[5]
  mutagenic call: inactive; negative
[6]
  mutagenic call: inactive; negative
[7]
  mutagenic call: inactive; negative
Test System: AMES SALMONELLA TYPHIMURIUM, Strain/Indicator: TA1538, Metabolic Activation: RAT, LIVER, S-9, AROCLOR 1254, Method: STANDARD PLATE
  mutagenic call: inactive; negative
Test System: E. COLI, Strain/Indicator: WP2 UVRA, Metabolic Activation: NONE, Method: STANDARD PLATE
  mutagenic call: inactive; negative
Test System: E. COLI, Strain/Indicator: WP2 UVRA, Metabolic Activation: RAT, LIVER, S-9, AROCLOR 1254, Method: STANDARD PLATE
  mutagenic call: inactive; negative

## Nc1c([N+](=O)[O-])cccc1[N+](=O)[O-]
[1]
  mutagenic call: active; positive
Test System: AMES SALMONELLA TYPHIMURIUM, Strain/Indicator: TA98, Metabolic Activation: RAT, LIVER, S-9, KANECHLOR 500, Method: PREINCUBATION
  mutagenic call: active; positive
[3]
  mutagenic call: active; positive
Test System: AMES SALMONELLA TYPHIMURIUM, Strain/Indicator: TA100, Metabolic Activation: RAT, LIVER, S-9, KANECHLOR 500, Method: PREINCUBATION
  mutagenic call: active; positive

## CCC(C)CO (configuration not stated)
Test System: CHINESE HAMSTER V-79, Strain/Indicator: V-79 (HPRT)/6-THIOGUANINE, Metabolic Activation: NONE, Method: STANDARD PLATE
  mutagenic call: inactive; negative
Test System: CHINESE HAMSTER V-79, Strain/Indicator: V-79 (HPRT)/6-THIOGUANINE, Metabolic Activation: RAT LIVER S-9, Method: STANDARD PLATE
  mutagenic call: inactive; negative
